Results reported in patent US20220387405A1, “METHODS OF TREATMENT WITH N-((R)-1-(3-CHLOROPYRIDIN-2-YL)-2,2,2-TRIFLUOROETHYL)-2-((S)-2,6-DIOXOPIPERIDIN-3-YL)-1-OXOISOINDOLINE-5-CARBOXAMIDE” (CELGENE CORPORATION, priority 2021, published 2022).
Read-outs that look alike come from different tables or passages of the source.

Tests used:
CYP2C8 = target: T1, CYP2C8 (Homo sapiens, UniProt P10632); experiment: CYP inhibition in human liver microsomes, CYP2C8; format: in vitro ADME
T1 construct: In human liver microsomes; from tissue; host or cells: human liver microsomes

CYP3A4/5 = experiment: CYP inhibition in human liver microsomes, CYP3A4/5; format: in vitro ADME
Plasma protein binding = format: in vitro ADME, human and nonclinical species
From the text: There was no marked difference in free fraction among human, rat and monkey. Over the concentration ranges tested (25- to 50-fold range) in each species, there was <2-fold change in free fraction.

[1] = GLP repeat-dose toxicity and toxicokinetics study in monkeys; format: in vivo, cynomolgus monkeys; settings: for AUC / Cmax: plasma, po
Protocol: Cardiovascular assessments (electrocardiograms [ECGs] and heart rates) were conducted in conscious cynomolgus monkeys as part of the Good Laboratory Practice (GLP)-compliant repeat dose toxicity study. In this study, Compound 1 was administered by oral gavage to Cynomolgus monkeys (5/sex/group) in Groups 1-5 at doses of 0 (0.5% (w/v) Methylcellulose, 0.25% (v/v) Tween 80 in 50 mM citrate buffer pH 3), 0.03, 0.1, 0.1 and 0.3 mg/kg, respectively, intermittently using 2 different dosing regimens. Groups 2 and 3 animals were dosed for 7 consecutive days in each 4-week cycle for 2 cycles (Regimen 1: on Days 1-7 and 29-35), whereas Groups 4 and 5 animals were dosed twice weekly for 4 weeks (Regimen 2: on Days 1, 4, 8, 11, 15, 18, 22 and 25). A combination of both dosing regimens (Days 1-7, 8, 11, 15, 18, 22, 25, and 29-35) was used for administration of the vehicle to the control animals. A 9-lead ECG recording was made on all animal during pretest and on all animals in Groups 4 and 5 on Day 22 (1 hour postdose±15 minutes) and on all animals in Groups 1, 2 and 3 during Week 5 (1 hour postdose±15 minutes) using standard limb leads I, II and III; augmented leads aVR, aVL and aVF as well as chest leads MV1, MV2 and MV3. All ECGs were performed while the unanesthetized animal was sitting in an up-right position in a restraint chair. Qualitative (visual inspection) and quantitative assessments including heart rates and PR, QRS, RR, QT, and QTc intervals were performed. QTc was calculated using Bazett's formula.
In a repeat-dose toxicity study in monkeys, Compound 1 was administered by oral gavage intermittently using 2 different dosing regimens. Animals in Regimen 1 were dosed for 7 consecutive days in each 4-week cycle for 2 cycles (0.03 or 0.1 mg/kg on Days 1-7 and 29-35), whereas animals in Regimen 2 were dosed twice weekly for 4 weeks (0.1 or 0.3 mg/kg on Days 1, 4, 8, 11, 15, 18, 22 and 25).
End of dosing necropsy was performed on the day after the last dose administration. A 4-week recovery period was included to assess reversibility of findings. Administration of Compound 1 was associated with mortality at 0.1 mg/kg using Regimen 1 during the recovery phase. Three animals (2 males and 1 female) were euthanized for welfare reasons and one female was found dead due to reduction (marked to severe) in BM cellularity resulting in severe leukopenia and likely bacteremia, as well as in severe thrombocytopenia with disseminated petechial hemorrhage.

[2] = test system: leukemic cells from TP53 WT AML patients; experiment: PharmaFlow test (Vivia), cytotoxic effect on leukemic cells in AML patient BM samples; format: cell-based, human
CYP2C19 = target: T2, CYP2C19 (Homo sapiens, UniProt P33261); experiment: CYP inhibition in human liver microsomes, CYP2C19; format: in vitro ADME
T2 construct: In human liver microsomes; from tissue; host or cells: human liver microsomes

[3] = test system: MV-4-11 AML xenograft model; experiment: Single dose PK/PD and efficacy studies, MV-4-11 AML xenograft model; format: in vivo, mice
Protocol: The CK1α degradation activity and subsequent antitumor activity of Compound 1 in vivo was tested in two TP53 WT AML cell line-derived xenograft models. The depth and duration of CK1α degradation was dose-dependent.
Based on single dose pharmacokinetic (PK)/pharmacodynamics (PD) and efficacy studies with the MV-4-11 AML xenograft model, nearly 90% degradation of CK1α at 2 hours post-dose and 50% suppression through 16 hours a day was maintained when the tumor Compound 1 concentration was >0.1 μM. Maintenance of >0.1 μM Compound 1 in tumor, and this degree of CK1α degradation with daily dosing at 3 mg/kg, led to a 73-99% reduction in tumor burden with significant survival benefit.

MV4-11 AML cell line = experiment: Compound washout experiment in MV4-11 (CK1α, p53 and downstream events); format: cell-based; settings: 0.3 μM for 12 hours followed by washout
[4] = Nonclinical pharmacokinetics in rats; format: in vivo
From the text: The systemic clearance of Compound 1 was low and the volume of distribution was high in rats and monkeys. […] Notable sex differences in PK were not observed in either species. Compound 1 had good oral bioavailability (≥50%) in rats and monkeys.

[5] = test system: Escherichia coli strain WP2 uvrA; experiment: Bacterial reverse mutation test, Escherichia coli; format: cell-based
Protocol: Compound 1 was tested in Salmonella typhimurium strains (TA1535, TA1537, TA98, TA100) and Escherichia coli strain WP2 uvrA at a range of concentrations up to 5000 μg/plate (the standard limit concentration for this assay), in the presence and absence of a supplemented rat liver fraction (S9 mix), using the plate incorporation version of the bacterial reverse mutation test. Dimethyl sulfoxide (DMSO) was used as the solvent.
The mean revertant colony counts for the negative controls were within the laboratory historical control range. Bacteria were also incubated with standard positive controls, and the response of the various bacterial strains to these agents confirmed the sensitivity of the test system and the activity of the S9 mix. Therefore, the results from both the negative and positive controls confirmed the validity of the assay.
No substantial increases in revertant colony numbers were obtained with any of the tester strains, following exposure to Compound 1 at any concentration, in either the presence or absence of S9 mix. Therefore, Compound 1 was considered to be negative for the induction of mutagenicity in this in vitro assay.

[6] = both sexes, cynomolgus monkey, 0.03 mg/kg, Regimen 1, sexes combined
[7] = both sexes, cynomolgus monkey, 0.1 mg/kg, Regimen 2, sexes combined

T1 sequence (P10632 whole entry): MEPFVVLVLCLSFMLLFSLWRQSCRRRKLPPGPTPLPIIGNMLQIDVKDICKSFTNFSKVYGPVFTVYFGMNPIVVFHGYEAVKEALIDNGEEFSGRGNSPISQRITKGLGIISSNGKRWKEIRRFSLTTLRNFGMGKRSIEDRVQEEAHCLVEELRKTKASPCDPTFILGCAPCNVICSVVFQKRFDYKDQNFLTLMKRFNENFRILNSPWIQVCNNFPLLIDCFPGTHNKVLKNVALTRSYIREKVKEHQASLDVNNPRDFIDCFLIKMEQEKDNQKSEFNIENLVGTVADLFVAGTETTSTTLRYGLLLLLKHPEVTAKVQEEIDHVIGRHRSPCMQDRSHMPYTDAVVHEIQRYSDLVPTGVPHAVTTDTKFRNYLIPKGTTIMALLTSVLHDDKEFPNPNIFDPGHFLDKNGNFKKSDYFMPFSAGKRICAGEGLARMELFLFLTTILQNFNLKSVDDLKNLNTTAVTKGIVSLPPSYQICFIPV
T2 sequence (P33261 whole entry): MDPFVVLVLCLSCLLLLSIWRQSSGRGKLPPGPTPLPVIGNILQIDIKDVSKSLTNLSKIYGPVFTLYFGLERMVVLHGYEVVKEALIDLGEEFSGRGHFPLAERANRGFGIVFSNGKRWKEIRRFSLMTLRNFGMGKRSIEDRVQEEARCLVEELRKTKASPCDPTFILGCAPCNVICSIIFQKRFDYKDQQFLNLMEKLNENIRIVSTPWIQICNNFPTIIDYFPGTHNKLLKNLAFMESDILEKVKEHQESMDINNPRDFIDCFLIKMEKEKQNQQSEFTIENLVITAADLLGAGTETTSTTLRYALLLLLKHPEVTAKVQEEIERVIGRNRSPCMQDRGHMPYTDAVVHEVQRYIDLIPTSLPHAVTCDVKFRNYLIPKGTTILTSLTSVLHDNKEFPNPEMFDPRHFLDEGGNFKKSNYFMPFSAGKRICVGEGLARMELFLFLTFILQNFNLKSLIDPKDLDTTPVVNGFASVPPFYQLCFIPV

## O=C1CC[C@H](N2Cc3cc(C(=O)N[C@H](c4ncccc4Cl)C(F)(F)F)ccc3C2=O)C(=O)N1 [Compound 1, N-((R)-1-(3-chloropyridin-2-yl)-2,2,2-trifluoroethyl)-2-((S)-2,6-dioxopiperidin-3-yl)-1-oxoisoindoline-5-carboxamide]
CYP2C8; CYP2C8, 30-minute preincubation with NADPH
  time-dependent inhibition: not a time-dependent inhibition
CYP2C8; human liver microsomes, CYP2C8
  IC50: > 30 µM
CYP3A4/5; human liver microsomes, CYP3A4/5
  IC50: > 30 µM
CYP3A4/5; human, liver microsomes, CYP3A4/5, at 30 μM, 30-minute preincubation with NADPH, read-out: time-dependent inhibition
  inhibition at 30 min, 30 µM: < 20%
Plasma protein binding; over the concentration ranges tested (25- to 50-fold range) in each species
  change in free fraction: < 2 fold
Plasma protein binding; plasma, human and nonclinical species
  fraction unbound: 0.007 to 0.103
[1]; 0.1 mg/kg, Regimen 1, during the recovery phase
  lethality: mortality
[1]; 0.1 mg/kg/day, Regimen 1, Day 34
  sex-combined mean maximum observed plasma concentration: 31.9 ng/mL
[1]; 0.1 mg/kg/day, Regimen 1, Day 34 vs human starting dose 0.1 mg/day
  fold higher than anticipated human Cmax of 0.4 ng/mL: approximately 80 fold
[1]; 0.3 mg/kg/day, Regimen 2, Day 15
  sex-combined mean maximum observed plasma concentration: 62.6 ng/mL
[1]; 0.3 mg/kg/day, Regimen 2, Day 15 vs human starting dose 0.1 mg/day
  fold higher than anticipated human Cmax of 0.4 ng/mL: ~157 fold
[1]; Regimen 1
  highest non-STD (HNSTD): 0.03 mg/kg
[1]; Regimen 2
  highest non-STD (HNSTD): 0.1 mg/kg
[1]; Regimen 2 (twice weekly for 4 weeks)
  NOAEL: not identified
[1]; both sexes, cynomolgus monkey, in vivo, Regimen 1 (Days 1-7 and 29-35), oral gavage, read-out: NOAEL
  NOAEL: 0.03 mg/kg
[1]; [6]
  AUC: 51.4 ng·h/mL
  Cmax: 9.95 ng/mL
[1]; [7]
  AUC: 173 ng·h/mL
  Cmax: 21.5 ng/mL
[2]; Homo sapiens
  IC50: 0.022 to 0.412 µM
[2]; out of 9 AML patient BM samples
  number of BM samples with sensitive leukemic cells: 5
CYP2C19; CYP2C19, 30-minute preincubation with NADPH
  time-dependent inhibition: not a time-dependent inhibition
CYP2C19; human liver microsomes, CYP2C19
  inhibitory effect: ≤ 25%
[3]; 2 hours post-dose, tumor concentration >0.1 μM
  degradation of CK1α: ~90%
[3]; AML xenograft tumors
  CK1α degradation in AML xenograft tumors: significantly degraded
[3]; daily dosing at 3 mg/kg
  reduction in tumor burden: 73-99%
[3]; maintained through 16 hours a day, tumor concentration >0.1 μM
  suppression of CK1α: 50%
MV4-11 AML cell line
  persistence of p53 downstream events (p21, phosphor-Ser139-Histone H2A.X, caspase 3 cleavage) after washout: at least 10 hours
[4]
  accumulation following multiple doses: No accumulation
  systemic clearance: low
  volume of distribution: high
[4]; rat, in vivo, po
  bioavailability: ≥ 50%
[4]; rat, in vivo, read-out: terminal half-life
  half-life: 1.5 to 1.7 h
[5]; highest concentrations tested
  toxicity to the bacteria: non-toxic
[5]; up to 5000 μg/plate, presence and absence of S9 mix
  induction of mutagenicity (revertant colony numbers): negative
